According to PubChem BioAssay (NCI):
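Protocol summary: plate cells (96-well), add compound at 5 concentrations, incubate 48 h, interpolate endpoints linearly. GI50 marks 50% less growth. TGI: concentration producing complete growth inhibition.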

Key:
Experiment in all cases: growth of human tumour cells (NCI), 48 h; in the data active = GI50 below about 0.43 µM; inactive = the rest
[1] = test system: 786-0 renal
[2] = test system: A498 renal
[3] = test system: A549 NSCLC
[4] = test system: ACHN renal
[5] = test system: BT-549 breast
[6] = test system: CAKI-1 renal
[7] = test system: CCRF-CEM leukemia
[8] = test system: COLO 205 colon
[9] = test system: DU-145 prostate
[10] = test system: EKVX NSCLC
[11] = test system: HCC-2998 colon
[12] = test system: HCT-116 colon
[13] = test system: HCT-15 colon
[14] = test system: HL-60(TB) leukemia
[15] = test system: HOP-62 NSCLC
[16] = test system: HOP-92 NSCLC
[17] = test system: HS 578T breast
[18] = test system: HT29 colon
[19] = test system: IGROV1 ovarian
[20] = test system: K-562 leukemia
[21] = test system: KM12 colon
[22] = test system: LOX IMVI melanoma
[23] = test system: M14 melanoma
[24] = test system: MALME-3M melanoma
[25] = test system: MCF7 breast
[26] = test system: MDA-MB-231 breast
[27] = test system: MDA-MB-435
[28] = test system: MOLT-4 leukemia
[29] = test system: NCI-H226 lung
[30] = test system: NCI-H23 lung
[31] = test system: NCI-H460 lung
[32] = test system: NCI-H522 lung
[33] = test system: NCI/ADR-RES ovarian
[34] = test system: OVCAR-3 ovarian
[35] = test system: OVCAR-4 ovarian
[36] = test system: OVCAR-5 ovarian
[37] = test system: OVCAR-8 ovarian
[38] = test system: PC-3 prostate
[39] = test system: RXF 393 renal
[40] = test system: SF-268 CNS
[41] = test system: SF-295 CNS
[42] = test system: SF-539 CNS
[43] = test system: SK-MEL-2 melanoma
[44] = test system: SK-MEL-28 melanoma
[45] = test system: SK-MEL-5 melanoma
[46] = test system: SK-OV-3 ovarian
[47] = test system: SN12C renal
[48] = test system: SNB-19 CNS
[49] = test system: SNB-75 CNS
[50] = test system: SW-620 colon
[51] = test system: T-47D breast
[52] = test system: TK-10 renal
[53] = test system: U251 CNS
[54] = test system: UACC-257 melanoma
[55] = test system: UACC-62 melanoma
[56] = test system: UO-31 renal
[57] = test system: RPMI-8226 leukemia
[58] = test system: SR leukemia

CCCCCCCCCCCCCCCC(=O)OCC1OC(n2cnc3c(=S)nc(N)[nH]c32)C(OC(=O)CCCCCCCCCCCCCCC)C1OC(=O)CCCCCCCCCCCCCCC (centres undefined)
> 26.1 µM: TGI [25]
> 21.5 µM: TGI [55]
35.8 µM: TGI [8]
28.4 µM: TGI [43]
> 47.4 µM: TGI [32]
> 22.1 µM: TGI [26]
> 35 µM: TGI [15]
> 27.8 µM: TGI [46]
> 50 µM: TGI [1] | TGI [2] | TGI [3] | TGI [4] | TGI [5] | TGI [7] | TGI [9] | TGI [10] | TGI [11] | TGI [12] | TGI [13] | TGI [14] | TGI [16] | TGI [17] | TGI [18] | TGI [19] | TGI [20] | TGI [21] | TGI [22] | TGI [24] | TGI [27] | TGI [28] | TGI [29] | TGI [30] | TGI [33] | TGI [35] | TGI [37] | TGI [38] | TGI [39] | TGI [40] | TGI [42] | TGI [44] | TGI [45] | TGI [47] | TGI [48] | TGI [49] | TGI [50] | TGI [51] | TGI [52] | TGI [53] | TGI [54] | TGI [56]
> 22.6 µM: TGI [31]
> 39.3 µM: TGI [36]
> 14.8 µM: TGI [6]
inactive: GI50 [1] 2.46 µM | GI50 [2] > 25.1 µM | GI50 [3] > 37.2 µM | GI50 [4] 11.8 µM | GI50 [5] > 50 µM | GI50 [6] 1.05 µM | GI50 [7] 1.85 µM | GI50 [8] 7.39 µM | GI50 [9] 1.98 µM | GI50 [10] 6.15 µM | GI50 [11] 6.88 µM | GI50 [12] 1.8 µM | GI50 [13] 6.17 µM | GI50 [14] > 35.6 µM | GI50 [15] 1.78 µM | GI50 [16] 3.85 µM | GI50 [17] 13 µM | GI50 [18] 3.22 µM | GI50 [19] 22.7 µM | GI50 [20] 2.05 µM | GI50 [21] 9.48 µM | GI50 [22] 1.54 µM | GI50 [23] 1.5 µM | GI50 [24] > 28.3 µM | GI50 [25] 1.65 µM | GI50 [26] 2.66 µM | GI50 [27] 3.68 µM | GI50 [28] 2.95 µM | GI50 [29] 8.59 µM | GI50 [30] 12.9 µM | GI50 [31] 2.8 µM | GI50 [32] 4.82 µM | GI50 [33] 4.46 µM | GI50 [34] 6.16 µM | GI50 [35] > 19.5 µM | GI50 [36] 3.4 µM | GI50 [37] 3.42 µM | GI50 [38] 9.96 µM | GI50 [39] 8.09 µM | GI50 [40] 7.9 µM | GI50 [41] 1.63 µM | GI50 [42] 6.95 µM | GI50 [43] 4.39 µM | GI50 [44] > 39 µM | GI50 [45] > 47 µM | GI50 [46] 1.55 µM | GI50 [47] 18.3 µM | GI50 [48] > 50 µM | GI50 [49] 4.38 µM | GI50 [50] 11.1 µM | GI50 [51] 2 µM | GI50 [52] 1.99 µM | GI50 [53] 24.1 µM | GI50 [54] > 50 µM | GI50 [55] 3.35 µM | GI50 [56] 9.49 µM
> 17.9 µM: TGI [23]
> 47.3 µM: TGI [34]
24.4 µM: TGI [41]

COc1ccc(C2=CC(c3cc(OC)c(OC)c(OC)c3)NC(=O)N2)cc1OC (centres undefined)
17.5 µM: TGI [30]
24.5 µM: TGI [20]
10.4 µM: TGI [58]
6.69 µM: TGI [8]
4.45 µM: TGI [9]
6.42 µM: TGI [36]
19.8 µM: TGI [15]
8.33 µM: TGI [47]
5.94 µM: TGI [42]
11.7 µM: TGI [22]
16.5 µM: TGI [45]
41.2 µM: TGI [52]
16.8 µM: TGI [55]
5.05 µM: TGI [34]
24.3 µM: TGI [43]
14.1 µM: TGI [53]
inactive: GI50 [1] 4.65 µM | GI50 [2] 1.83 µM | GI50 [3] 4.74 µM | GI50 [4] 3.5 µM | GI50 [6] 2.26 µM | GI50 [7] 2.65 µM | GI50 [8] 2.65 µM | GI50 [9] 1.9 µM | GI50 [10] 2.85 µM | GI50 [11] 3.77 µM | GI50 [12] 3.17 µM | GI50 [13] 2.9 µM | GI50 [14] 1.57 µM | GI50 [15] 3.99 µM | GI50 [16] 12.5 µM | GI50 [18] 4.05 µM | GI50 [19] 3.8 µM | GI50 [20] 1.96 µM | GI50 [21] 2.25 µM | GI50 [22] 3.05 µM | GI50 [23] 3.59 µM | GI50 [24] 5.06 µM | GI50 [25] 4.26 µM | GI50 [26] 2.84 µM | GI50 [27] 3.1 µM | GI50 [28] 2.41 µM | GI50 [29] 8.4 µM | GI50 [30] 3.48 µM | GI50 [31] 1.92 µM | GI50 [32] 2.78 µM | GI50 [33] 3.02 µM | GI50 [34] 2.13 µM | GI50 [35] 3.61 µM | GI50 [36] 2.28 µM | GI50 [37] 4.25 µM | GI50 [38] 10.2 µM | GI50 [57] 3.03 µM | GI50 [39] 3.04 µM | GI50 [40] 3.46 µM | GI50 [41] 2.34 µM | GI50 [42] 2.28 µM | GI50 [43] 4.96 µM | GI50 [44] 6.97 µM | GI50 [45] 4.41 µM | GI50 [46] 3.67 µM | GI50 [47] 2.42 µM | GI50 [48] 4.73 µM | GI50 [49] 2.42 µM | GI50 [58] 2.11 µM | GI50 [50] 2.96 µM | GI50 [51] 2.63 µM | GI50 [52] 4.48 µM | GI50 [53] 3.82 µM | GI50 [54] 10.8 µM | GI50 [55] 4.31 µM | GI50 [56] 2.54 µM
11.1 µM: TGI [12]
23.2 µM: TGI [10] | TGI [54]
6.12 µM: TGI [21]
11.2 µM: TGI [32]
20.5 µM: TGI [44]
21.1 µM: TGI [24]
12.6 µM: TGI [11]
12.5 µM: TGI [28]
12.8 µM: TGI [56]
7.95 µM: TGI [49]
9.32 µM: TGI [6]
14.5 µM: TGI [40]
> 100 µM: TGI [3] | TGI [16] | TGI [29] | TGI [33] | TGI [35] | TGI [37] | TGI [38] | TGI [46]
11 µM: TGI [7]
19.3 µM: TGI [57]
8.32 µM: TGI [2]
8.04 µM: TGI [26]
17 µM: TGI [48]
17.7 µM: TGI [13]
16.9 µM: TGI [27]
7.87 µM: TGI [41]
12.7 µM: TGI [39]
5 µM: TGI [31]
15.6 µM: TGI [1]
20.4 µM: TGI [19]
43.6 µM: TGI [4]
10.2 µM: TGI [50]
6.52 µM: TGI [14]
14.8 µM: TGI [25]
11.5 µM: TGI [23]
15.1 µM: TGI [18]
28.9 µM: TGI [51]
